Data set [1] relates to HT-29. Nature of the data set: Antitumor activity against human HT-29 cells after 72 hrs by sulforhodamine B assay. In kind it is functional, cell-based. Conditions: HT-29, 72 h.
Data set [2] deals with A549. Nature of the data set: Antitumor activity against human A549 cells after 72 hrs by sulforhodamine B assay. The class given is functional, cell-based. Conditions: A549, 72 h.
The nature of data set [3]: Aqueous solubility of the compound in pure water at 25 degC. The class given is physicochemical.
Data set [4] has as its system A549. Nature of the data set: Ratio of R16 IC50 to compound IC50 for human A549 cells. The class given is functional.
The test system of data set [5] is HT-29. Nature of the data set: Ratio of R16 IC50 to compound IC50 for human HT-29 cells. The class given is functional.

On to `CN(C)CCN1C(=O)c2cccc3c2c(cc2c4ccccc4sc32)C1=O`, for which the IC50 (usually the midpoint of a concentration-inhibition curve) in data set [1] was determined as 1090 nM; in data set [2] it was 200 nM.

`CN(C)CCNC(=O)c1cc2c3cc(O)ccc3n(C)c2c2cccnc12.Cl`: in data set [3], the concentration in solution (solubility) was 22.4 mg/mL.

With `CN(C)CCNC(=O)c1cc2c3ncccc3n(C)c2c2cccnc12`, the IC50 in data set [1] was 220 nM; in data set [2], 360 nM.

For the compound `CN(C)CCNC(=O)c1cc2c3cnccc3n(C)c2c2cccnc12`, the IC50 in data set [1] was found to be 150 nM; in data set [2], 160 nM.

As for `CN(C)CCNC(=O)c1cc2c3ccncc3n(C)c2c2cccnc12`, the IC50 in data set [1] and in data set [2] was 130 nM in each case.

`CN(C)CCNC(=O)c1cc2c3cccnc3n(C)c2c2cccnc12`: the IC50 in data set [1] was found to be 180 nM; in data set [2] it was 160 nM.

For the compound `Cn1c2ccccc2c2cc(C(=O)NCCN3CCCC3)c3ncccc3c21`, the IC50 in data set [1] came out at 630 nM; in data set [2], 270 nM.

In the case of `Cn1c2ccccc2c2cc(C(=O)NCCN3CCNCC3)c3ncccc3c21`, the IC50 came out at 1250 nM in data set [1] and 780 nM in data set [2].

Take `CN1CCN(CCNC(=O)c2cc3c4ccccc4n(C)c3c3cccnc23)CC1`: the IC50 in data set [1] came to 1240 nM; in data set [2], 890 nM.

In the case of `Cn1c2ccccc2c2cc(C(=O)NCCN3CCOCC3)c3ncccc3c21`, the figures for the half-maximal inhibitory concentration (IC50) in data set [1] and in data set [2] were 2240 nM and 1180 nM, respectively.

As for `Cn1c2ccccc2c2cc(C(=O)NCCN3CCCCC3)c3ncccc3c21`, the results for the IC50 in data set [1] and in data set [2] were 1300 nM and 820 nM, respectively.

`Cn1c2ccccc2c2cc(C(=O)NCCN)c3ncccc3c21`: the concentration for half-maximal inhibition (IC50) in data set [1] came to 2470 nM; in data set [2] it was 2110 nM.

As to `CNCCNC(=O)c1cc2c3ccccc3n(C)c2c2cccnc12`, the IC50 in data set [1] stood at 1460 nM; in data set [2], 1370 nM.

On to `Cn1c2ccccc2c2cc(C(=O)NCCO)c3ncccc3c21`, for which the IC50 was determined as 4450 nM in data set [1] and 3060 nM in data set [2].

`CN(C)CCCNC(=O)c1cc2c3ccccc3n(C)c2c2cccnc12`: the IC50 was 850 nM in data set [1] and 560 nM in data set [2].

For the compound `Cn1c2ccccc2c2cc(C(=O)NCCCN3CCCC3)c3ncccc3c21`, the values for the IC50 in data set [1] and in data set [2] were 1060 nM and 870 nM, respectively.

In the case of `Cn1c2ccccc2c2cc(C(=O)NCCCN3CCOCC3)c3ncccc3c21`, the IC50 in data set [1] came to 1410 nM; in data set [2], 710 nM.

For `CN(C)CCCNC(=O)c1cc2c3ccccc3oc2c2cccnc12`, the values for the IC50 in data set [1] and in data set [2] were 2060 nM and 2230 nM, respectively.

Regarding `CN(C)CCCNC(=O)c1cc2c3ccccc3sc2c2cccnc12`, the values for the half-maximal inhibitory concentration (IC50) in data set [1] and in data set [2] were 1160 nM and 600 nM, respectively.

Turning to `CN(C)CCNC(=O)c1cc2c3ccccc3oc2c2cccnc12`, the IC50 amounted to 2270 nM in data set [1] and 1890 nM in data set [2].

`CN(C)CCNC(=O)c1cc2c3ccccc3sc2c2cccnc12`: the IC50 came out at 600 nM in data set [1] and 270 nM in data set [2].

In the case of `COc1ccc2c(c1)c1cc(C(=O)NCCN(C)C)c3ncccc3c1n2C`, the figures for the IC50 in data set [1] and in data set [2] were 200 nM and 220 nM, respectively.

In the case of `CN(C)CCNC(=O)c1cc2c3cc(O)ccc3n(C)c2c2cccnc12`, the “Ratio IC50” value was found to be 7 in data set [4] and 10 in data set [5]. The IC50 is 110 nM in data set [1] and 70 nM in data set [2].

Turning to `CN(C)CCNC(=O)c1cc2c3cc(F)ccc3n(C)c2c2cccnc12`, the concentration for half-maximal inhibition (IC50) was 160 nM in data set [1] and 170 nM in data set [2].

As for `CN(C)CCNC(=O)c1cc2c3cc(Cl)ccc3n(C)c2c2cccnc12`, the results for the IC50 in data set [1] and in data set [2] were 230 nM and 260 nM, respectively.

In the case of `CN(C)CCNC(=O)c1cc2c3ccccc3[nH]c2c2cccnc12`, the figures for the IC50 in data set [1] and in data set [2] were 830 nM and 690 nM, respectively.

With `CN(C)CCCNC(=O)c1cc2c3ccccc3[nH]c2c2cccnc12`, the IC50 in data set [1] was 1390 nM; in data set [2], 770 nM.

Take `CN(C)CCNC(=O)c1cc2c3ccccc3n(C)c2c2cccnc12`: the IC50 amounted to 470 nM in data set [1] and 390 nM in data set [2].

These data come from ChEMBL document CHEMBL2413024, “Design and synthesis of pyrido[3,2-α]carbazole derivatives and their analogues as potent antitumour agents” (Eur J Med Chem, 2013).
